Measurements reported in PubChem BioAssay AID463229 (Broad Institute, 2010).

tested on: INS-1E rat beta cells, no cytokines, CellTiter-Glo ATP, 48 h; assay: ATP level change in INS-1E without cytokines, dose response, counter-screen for beta-cell apoptosis protection project, INS-1E rat cells, ATP luminescence, cherry pick (AID 463229)

Which AC50 does the source give for O=C(Nc1cccc([N+](=O)[O-])c1)c1cc2ccccc2cc1O here?
Its AC50 is 4.38 µM.

How did the AC50 turn out when CCCCCCCNC1=CC(=O)CC(c2ccccc2)C1 (centres undefined) was run?
Its AC50 is 9.84 µM.

Which AC50 does the source give for CCN(CC)CCC(=O)Nc1cccc2c1C(=O)c1ccccc1C2=O here?
The AC50 was 12 µM.

Which AC50 does the source give for CCOc1cccc(/C=N/Nc2ccc(S(=O)(=O)N(CC)CC)cn2)c1O here?
Its AC50 is 3.67 µM.

For COc1ccc2cc1Oc1ccc(cc1)C[C@H]1c3c(cc(OC)c4c3Oc3c(ccc5c3[C@H](C2)N(C)CC5)O4)CCN1C, which AC50 is on record?
The AC50 was 7.68 µM.

Which AC50 does the source give for O=C(Nc1nc2c(F)cc(F)cc2s1)c1ccccn1 here?
Its AC50 is 6.37 µM.

With COc1ccc(-c2nn(-c3ccccc3)cc2C(=O)OCC(=O)c2ccc(C)c([N+](=O)[O-])c2)cc1 as the compound, how does the AC50 read?
The AC50 was 0.866 µM.

CC(=O)NC(c1cc(Cl)c2cccnc2c1O)C1CC1 (centres undefined) was tested. Which AC50 did it give?
Its AC50 is 7.49 µM.

For Cc1ccc(C(=O)Nc2nc(-c3ccccn3)cs2)cc1S(=O)(=O)N1CCOCC1, which AC50 is on record?
The AC50 was 6.47 µM.

CCN(CC)c1ccc2nc3ccccc3[n+](CC)c2c1 was tested. Which AC50 did it give?
Its AC50 is 3.19 µM.

For COc1ccc(-n2cc(-c3ccc(C)cc3)[n+]3c2SCC3)cc1, which AC50 is on record?
The AC50 was 0.924 µM.

With O=c1nccc(N/N=C/c2ccccc2O)[nH]1 as the compound, how does the AC50 read?
Its AC50 is 23.3 µM.

For COc1ccc(NS(=O)(=O)c2cccc(NC(=O)c3ccc(S(=O)(=O)N4CCCCCC4)cc3)c2)cc1, which AC50 is on record?
Its AC50 is 4.24 µM.

CC(=O)c1sc(NC(=O)C2(F)C(F)(F)C(F)(F)C(F)(F)C(F)(F)C2(F)F)nc1C was tested. Which AC50 did it give?
Its AC50 is 4.17 µM.

For CCc1ccc(C(=O)NNc2cc(Cl)ccc2Cl)cc1, which AC50 is on record?
Its AC50 is 8 µM.

How did the AC50 turn out when CCCCC(=O)NC(c1ccc(N(C)C)cc1)c1ccc2cccnc2c1O (centres undefined) was run?
The AC50 was 1.6 µM.

For O=c1[nH]c(=O)n(Cc2ccco2)c2c1C(C(F)(F)F)(C(F)(F)F)N=C(c1ccc(F)cc1)N2, which AC50 is on record?
The AC50 was 1.39 µM.

How did the AC50 turn out when Cc1ccc(NC(=O)c2nc(S(=O)(=O)Cc3ccccc3)ncc2Cl)cc1 was run?
The AC50 was 15.3 µM.

CCOC(=O)N1CCN(S(=O)(=O)c2ccc(C(=O)NNc3nc4ccc(Cl)cc4s3)cc2)CC1 was tested. Which AC50 did it give?
Its AC50 is 5.43 µM.

COc1ccc(Br)cc1CN1CCN(Cc2c[nH]c3ccccc23)CC1 was tested. Which AC50 did it give?
The AC50 was 7.35 µM.

For COc1cc(SC#N)ccc1N=Cc1c(C)[nH]n(-c2ccc(C)cc2)c1=O, which AC50 is on record?
The AC50 was 8.46 µM.

Which AC50 does the source give for Cc1ccc(NC(=O)c2ccc([N+](=O)[O-])o2)cc1S(=O)(=O)N1CCOCC1 here?
The AC50 was 14.3 µM.

With CCC(=O)NC(c1ccc(Cl)cc1Cl)c1ccc2cccnc2c1O (centres undefined) as the compound, how does the AC50 read?
Its AC50 is 2.34 µM.

For CC(C)(C)c1cc(C(=O)N/N=C/c2ccc([N+](=O)[O-])s2)n[nH]1, which AC50 is on record?
The AC50 was 6.84 µM.

How did the AC50 turn out when COc1cccc(N=Nc2ccc(O)c3ncccc23)c1 was run?
The AC50 was 6.47 µM.

With Cc1cc(/C=N/n2cnnc2)c(C)n1-c1ccc(OCc2ccccc2F)cc1 as the compound, how does the AC50 read?
Its AC50 is 4.05 µM.

For O=C(NCCCn1ccnc1)c1ccc(N2CCCCCC2)c([N+](=O)[O-])c1, which AC50 is on record?
The AC50 was 8.09 µM.

O=C(NNc1ccnc2cc(Cl)ccc12)C1CCCCC1 was tested. Which AC50 did it give?
The AC50 was 2.53 µM.

Which AC50 does the source give for C[C@H]1CCC/C=C/C2C[C@H](O)CC2[C@H](O)/C=C/C(=O)O1 (some centres undefined) here?
The AC50 was 0.94 µM.

CC1=CC(=O)C(C(C)C)=C/C1=N/OS(=O)(=O)c1ccccc1 was tested. Which AC50 did it give?
The AC50 was 1.42 µM.

CC1Cc2cc(S(=O)(=O)N3CCC(C(=O)N4CCN(c5ccccc5F)CC4)CC3)ccc2N1C(=O)C1CC1 (centres undefined) was tested. Which AC50 did it give?
Its AC50 is 8 µM.

With Cc1ccc(C(=O)NC(=S)/C=C2\N(C)c3ccccc3C2(C)C)cc1 as the compound, how does the AC50 read?
The AC50 was 4.23 µM.

Which AC50 does the source give for COC(=O)c1cc(O)cc(OC)c1Oc1cc(C)cc(O)c1C(=O)O here?
The AC50 was 5.37 µM.

Which AC50 does the source give for COC(=O)c1ccc2[nH]c3cccc(/C(=C/c4ccccc4)c4ccccc4)c3c2c1 here?
Its AC50 is 15.7 µM.

Which AC50 does the source give for COc1ccc(OC)c2[nH]c(C(=O)N/N=C/c3ccccc3O)cc12 here?
Its AC50 is 7.58 µM.

O=C(CSc1nc2ccccc2c(=O)n1-c1ccccc1)N1CCc2ccccc2C1 was tested. Which AC50 did it give?
The AC50 was 3.16 µM.

For CCn1c(-c2ccccc2)c(C(=O)CCl)c2ccccc21, which AC50 is on record?
The AC50 was 11.6 µM.

With Cc1ccc(C(=O)N/C(=C\c2ccc(-c3ccc(Br)cc3)o2)C(=O)NCCCN(C)C)cc1 as the compound, how does the AC50 read?
Its AC50 is 7.87 µM.

For CCOc1cc(/C=N/Nc2cc(C)nc(-n3nc(C)cc3C)n2)ccc1O, which AC50 is on record?
Its AC50 is 5.78 µM.

Cc1ccc(Nc2c(-c3ccccn3)nc3cccc(C)n23)cc1 was tested. Which AC50 did it give?
The AC50 was 6.47 µM.

For CC[C@]1(c2ccccc2OC)ON(c2ccccc2C(F)(F)F)C1=O, which AC50 is on record?
Its AC50 is 4.55 µM.

With Fc1ccccc1N=C1NN=C(c2ccccc2)CS1 as the compound, how does the AC50 read?
The AC50 was 4.95 µM.

Which AC50 does the source give for CC(C)(C)OC(=O)NCc1ccc(NC(=O)c2nc[nH]c2C(=O)NCCCCNC(=O)c2[nH]cnc2C(=O)Nc2ccc(CNC(=O)OC(C)(C)C)cc2)cc1 here?
Its AC50 is 5.34 µM.

For Cc1sc2ncnc(NCC(C)(C)N3CCOCC3)c2c1C, which AC50 is on record?
The AC50 was 6.11 µM.

Which AC50 does the source give for O=[N+]([O-])c1cc(Cl)cc(/C=N\Nc2ccccn2)c1O here?
Its AC50 is 2.55 µM.

Which AC50 does the source give for CCN(CC)CCNc1ncnc2c1sc1nc(N3CCOCC3)c3c(c12)CC(C)(C)SC3 here?
The AC50 was 14.2 µM.

For N=c1c2c(-c3ccccc3)c(-c3ccccc3)n(Cc3ccco3)c2ncn1Cc1ccccc1, which AC50 is on record?
Its AC50 is 7.01 µM.

For CC[C@@]1(O)C(=O)OCc2c1cc1n(c2=O)Cc2cc3c(N)cccc3nc2-1, which AC50 is on record?
Its AC50 is less than 0.195 µM.

Which AC50 does the source give for CCCC(=O)NC(NC(=S)Nc1ccc(N=Nc2ccccc2)cc1)C(Cl)(Cl)Cl (centres undefined) here?
Its AC50 is 7.51 µM.

FC(F)(F)c1nnc(-c2ccccc2)nc1Sc1ccc(Cl)cc1 was tested. Which AC50 did it give?
Its AC50 is 12.6 µM.

With CC1CCN(c2ccc(NC(=O)c3ccc([N+](=O)[O-])o3)cc2)CC1 as the compound, how does the AC50 read?
Its AC50 is 10.1 µM.

For CCN(CC)CCOc1ccc2c(c1)C(=NO)c1cc(OCCN(CC)CC)ccc1-2, which AC50 is on record?
Its AC50 is 14.1 µM.

For Oc1ccc2ccccc2c1N=Nc1nccs1, which AC50 is on record?
The AC50 was 6.54 µM.

With CC1=C(C)/C(=N\OS(=O)(=O)c2ccc(C)cc2)C=CC1=O as the compound, how does the AC50 read?
The AC50 was 4.47 µM.
